According to patent US20250059188A1, “ARYLSULPHONAMIDE COMPOUNDS” (Anaxis Pharma Pty Ltd, priority 2021, published 2025):

Experiments:
[1] = molecular target: human MLKL (full length) (Homo sapiens (Human), UniProt Q8NB16); test: KINOMEscan binding assay, human MLKL (full length); conditions: equilibrium dissociation constant
Procedure: (§1) Binding affinity of the test compounds for human MLKL (full length), mouse MLKL (full length), human RIPK1 and human RIPK3 was determined using the KINOMEscan™ technology developed by DiscoverX (USA; http://www.discoverx.com). The assay was conducted according to manufacturer instructions.
(§2) Kinase assays. For most assays, kinase-tagged T7 phage strains were grown in parallel in 24-well blocks in an E. coli host derived from the BL21 strain. E. coli were grown to log-phase and infected with T7 phage from a frozen stock (multiplicity of infection=0.4) and incubated with shaking at 32° C. until lysis (90-150 minutes). The lysates were centrifuged (6,000×g) and filtered (0.2 μm) to remove cell debris. The remaining kinases were produced in HEK-293 cells and subsequently tagged with DNA for qPCR detection. […] The liganded beads were blocked with excess biotin and washed with blocking buffer (SeaBlock (Pierce), 1% BSA, 0.05% Tween 20, 1 mM DTT) to remove unbound ligand and to reduce non-specific phage binding. […] All reactions were performed in polypropylene 384-well plates in a final volume of 20 μL. […] The kinase concentration in the eluates was measured by qPCR.
(§3) An 11-point 3-fold serial dilution of each test compound was prepared in 100% DMSO at 100× final test concentration and subsequently diluted to 1× in the assay (final DMSO concentration=1%). Most Kos were determined using a compound top concentration=30,000 nM.
(§4) KD for each test compound was calculated with a standard dose-response curve using the Hill equation (equation (1)): […]
(§5) The Hill Slope was set to −1.
(§6) Curves were fitted using a non-linear least square fit with the Levenberg-Marquardt algorithm.

[2] = molecular target: human RIPK1 (Homo sapiens (Human), UniProt Q13546); test: KINOMEscan binding assay, human RIPK1; conditions: equilibrium dissociation constant
Procedure: as §1, §2, §3, §4, §5, §6

[3] = molecular target: human RIPK3 (Homo sapiens (Human), UniProt Q9Y572); test: KINOMEscan binding assay, human RIPK3; conditions: equilibrium dissociation constant
Procedure: as §1, §2, §3, §4, §5, §6

[4] = tested on: U937 human histiocytic leukemia cell line; test: Inhibition of TSQ induced necroptosis in U937 cells (CellTitre-Glo); conditions: Homo sapiens, U-937, TSQ cocktail (TNF, Smac mimetic, Q-VD-OPh), 48 hours, read-out: Inhibition of TSQ-induced necroptosis (IC50 cell-based assay)
Procedure: Cellular Assay: Screening Compounds for Inhibition of TSQ Induced Necroptosis, 384 Well Plate Format.
(§7) • Cell Line ID: U937 human histiocytic leukemia cell line. • Cell Concentration (cells/well): Final cell density is 20000 cells per well. • Cell growth medium: HT-RPMI medium+7.4% Fetal Bovine Serum (FBS). Cells are cultured in Corning 150 cm^2 tissue culture flasks with vented caps at 37° C./5% CO2. • Incubation: Plates were incubated at 37° C./5% CO2 in a humidified incubator for 48 hours following addition of compounds and death stimuli (TSQ cocktail). • Compound concentration: 36 μM starting concentration, 1:3 dilution, 10 point • DMSO final concentration (% v/v): 0.3%. Compounds in TSQ Cocktail (T: TNF; S: Smac Mimetic; Q: Q-VD-OPh) and their Final Concentrations: • hTNF-Fc (100 ng/ml)—produced by standard procedures as shown in Bossen et al., J. Biol. Chem., 2006, 281(20), 13964-13971. • Compound A (500 nM) —Smac mimetic, Tetralogic and SYNthesis med chem • Q-VD-OPh (10 μM) —MP Biomedicals
(§8) The cellular assay was carried out according to the following steps: • 1. Each well was prepared by sequential addition of: • a. DMSO (control; columns 1-2 and 23-24) or compound in DMSO—addition was performed using acoustic transfer of nL volumes of stock compound to give final test concentrations of 36, 12, 4, 1.3, 0.44, 0.148, 0.049, 0.016, 0.005 and 0.002 μM. All wells were backfilled with DMSO to a final total volume in the well of 100 nL. • b. Following compound/DMSO addition in step (a), 40 μL of cell suspension (5×10^5 cells/mL) was added to provide a final cell concentration of 20,000 cells per well, and • c. Following cell addition in step (b), 10 μL of 5×TSQ cocktail (except to positive controls; columns 1 and 23) was added to each well. • 2. After 48 hours, plate was removed from the 37° C. incubator and equilibrated to room temperature for 45 minutes. • 3. 15 μL of room temperature CellTitre-Glo2™ (Promega™) was added to each well. • 4. Shook plates for 2 minutes (˜600 rpm) and incubated at room temperature for 15 minutes to allow signal to stabilise. • 5. Read luminescence readout on a plate reader.
Percent viability was calculated for each compound according to equation (2): […]
(§9) 10 point titration curves were fitted with the 4 parameter logistic nonlinear regression model and the IC50 reported reflect the inflection point of the curve for curve fitting.
(§10) • Assay involving the TSQ cocktail (T: TNF; S: Smac mimetic; Q: Q-VD-OPh): TSQ treatment ensures that cells specifically undergo necroptotic cell death. TNF activates the TNF receptor, Smac mimetic directs the signal away from proinflammatory signaling and toward the RIPK1/RIPK3-mediated cell death pathways, and Q-VD-OPh ensures that the apoptotic response is blocked leaving only the programmed necrosis response. The compounds' activity (solution in DMSO) tested in this TSQ-induced assay was evaluated by determining the number of viable cells in culture by measuring the amount of ATP present as measured by CelltiterGlo. • Counter screen: In parallel, all compounds were tested for their ability to affect cell viability. The same U937 cells were treated with compound in DMSO without the TSQ cocktail. This counter screen enabled evaluation of off-target effects. In this case, cell viability was measured by CelltiterGlo.

[5] = tested on: U937 cells; test: Counter screen: U937 cell viability without TSQ cocktail (off-target effect); parameters: species or system human; conditions: Homo sapiens, U-937, compound without TSQ cocktail, read-out: Off-target effect (IC50 cell-based assay)
Procedure: as §7, §8, §9, §10

Chain of human RIPK3 (Q9Y572 whole entry): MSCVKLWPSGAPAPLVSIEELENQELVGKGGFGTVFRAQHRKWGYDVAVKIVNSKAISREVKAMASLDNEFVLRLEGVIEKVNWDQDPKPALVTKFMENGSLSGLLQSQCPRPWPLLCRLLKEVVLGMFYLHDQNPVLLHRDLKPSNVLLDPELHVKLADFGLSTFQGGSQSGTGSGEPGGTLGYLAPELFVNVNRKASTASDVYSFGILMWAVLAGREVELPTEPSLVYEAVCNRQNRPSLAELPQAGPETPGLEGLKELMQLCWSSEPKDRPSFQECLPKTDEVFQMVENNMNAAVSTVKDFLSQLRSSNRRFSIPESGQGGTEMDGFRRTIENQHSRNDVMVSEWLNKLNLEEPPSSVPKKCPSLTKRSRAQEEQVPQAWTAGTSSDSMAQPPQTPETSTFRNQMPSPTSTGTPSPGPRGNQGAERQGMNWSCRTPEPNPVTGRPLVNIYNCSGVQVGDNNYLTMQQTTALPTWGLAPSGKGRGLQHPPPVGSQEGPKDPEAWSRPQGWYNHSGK
Chain of human RIPK1 (Q13546 whole entry): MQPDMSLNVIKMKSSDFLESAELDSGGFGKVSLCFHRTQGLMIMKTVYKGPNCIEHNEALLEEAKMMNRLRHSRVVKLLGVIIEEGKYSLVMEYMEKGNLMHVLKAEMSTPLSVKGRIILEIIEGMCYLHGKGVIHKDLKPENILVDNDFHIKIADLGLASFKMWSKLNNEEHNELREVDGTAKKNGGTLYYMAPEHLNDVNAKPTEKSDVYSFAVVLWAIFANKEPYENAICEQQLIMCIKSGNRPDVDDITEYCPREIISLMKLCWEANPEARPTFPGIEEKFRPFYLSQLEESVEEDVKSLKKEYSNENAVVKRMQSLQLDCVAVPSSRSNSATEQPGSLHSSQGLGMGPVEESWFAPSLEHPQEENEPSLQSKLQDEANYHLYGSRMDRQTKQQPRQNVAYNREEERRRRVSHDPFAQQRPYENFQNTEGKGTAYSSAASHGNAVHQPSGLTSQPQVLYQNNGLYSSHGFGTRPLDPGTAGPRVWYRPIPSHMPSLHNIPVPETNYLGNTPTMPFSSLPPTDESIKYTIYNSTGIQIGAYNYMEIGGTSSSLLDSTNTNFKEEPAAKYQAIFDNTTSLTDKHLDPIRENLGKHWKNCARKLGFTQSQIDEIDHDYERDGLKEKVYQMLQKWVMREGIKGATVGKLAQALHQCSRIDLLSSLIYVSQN
Chain of human MLKL (full length) (Q8NB16 whole entry): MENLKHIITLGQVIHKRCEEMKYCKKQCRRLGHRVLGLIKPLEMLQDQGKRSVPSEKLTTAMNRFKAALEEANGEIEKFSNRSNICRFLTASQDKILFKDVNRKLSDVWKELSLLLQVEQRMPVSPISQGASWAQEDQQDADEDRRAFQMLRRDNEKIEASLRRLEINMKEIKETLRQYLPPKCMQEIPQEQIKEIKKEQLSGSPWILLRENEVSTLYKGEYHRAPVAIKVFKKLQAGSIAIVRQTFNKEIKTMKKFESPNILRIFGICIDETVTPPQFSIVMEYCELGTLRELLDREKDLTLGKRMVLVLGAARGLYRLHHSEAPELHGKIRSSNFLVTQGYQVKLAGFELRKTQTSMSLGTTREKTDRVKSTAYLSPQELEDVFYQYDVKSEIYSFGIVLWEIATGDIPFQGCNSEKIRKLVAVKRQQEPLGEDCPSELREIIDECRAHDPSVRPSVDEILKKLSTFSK

COCC(Oc1cc(-c2nn(C)c3c(-c4cnn(C5CCOCC5)c4)cnc(N)c23)ccc1NS(=O)(=O)C(F)F)c1ccc(F)cc1 (racemic) [Compound 102, N-(4-(4-amino-1-methyl-7-(1-(tetrahydro-2H-pyran-4-yl)-1H-pyrazol-4-yl)-1H-pyrazolo[4,3-c]pyridin-3-yl)-2-(1-(4-fluorophenyl)-2-methoxyethoxy)phenyl)-1,1-difluoromethanesulfonamide]
Kd [1]: < 0.001 µM
Kd [2]: > 10 µM
Kd [3]: > 10 µM
IC50 [4]: 0.01 to 1 µM
IC50 [5]: > 10 µM

Cn1cc(-c2cnc(N)c3c(-c4ccc(NS(=O)(=O)C(F)F)c(OCc5ccc(F)cc5)c4)nn(C)c23)cn1 [Compound 16, N-(4-(4-amino-1-methyl-7-(1-methyl-1H-pyrazol-4-yl)-1H-pyrazolo[4,3-c]pyridin-3-yl)-2-((4-fluorobenzyl)oxy)phenyl)-1,1-difluoromethanesulfonamide]
Kd [1]: < 0.001 µM
Kd [2]: > 10 µM
Kd [3]: > 10 µM
IC50 [4]: 1 to 10 µM
IC50 [5]: > 10 µM

C[C@H](Oc1cc(-c2nn(C)c3c(C4=CCN(C)CC4)cnc(N)c23)ccc1NS(=O)(=O)C(F)F)c1ccc(F)cc1 [Compound 21, (S)-N-(4-(4-amino-1-methyl-7-(1-methyl-1,2,3,6-tetrahydropyridin-4-yl)-1H-pyrazolo[4,3-c]pyridin-3-yl)-2-(1-(4-fluorophenyl)ethoxy)phenyl)-1,1-difluoromethanesulfonamide]
Kd [1]: < 0.001 µM
Kd [2]: > 10 µM
Kd [3]: > 10 µM
IC50 [4]: 1 to 10 µM
IC50 [5]: > 10 µM

C[C@H](Oc1cc(-c2nn(C)c3c(-c4ccnc(C(F)(F)F)c4)cnc(N)c23)ccc1NS(=O)(=O)C(F)F)c1ccc(F)cc1 [Compound 23, (S)-N-(4-(4-amino-1-methyl-7-(2-(trifluoromethyl)pyridin-4-yl)-1H-pyrazolo[4,3-c]pyridin-3-yl)-2-(1-(4-fluorophenyl)ethoxy)phenyl)-1,1-difluoromethanesulfonamide]
Kd [1]: 0.001 to 0.1 µM
Kd [2]: > 10 µM
Kd [3]: > 10 µM
IC50 [4]: 1 to 10 µM
IC50 [5]: > 10 µM

Cc1cc(-c2cnc(N)c3c(-c4ccc(NS(=O)(=O)C(F)F)c(O[C@@H](C)c5ccc(F)cc5)c4)nn(C)c23)ccn1 [Compound 24, (S)-N-(4-(4-amino-1-methyl-7-(2-methylpyridin-4-yl)-1H-pyrazolo[4,3-c]pyridin-3-yl)-2-(1-(4-fluorophenyl)ethoxy)phenyl)-1,1-difluoromethanesulfonamide]
Kd [1]: < 0.001 µM
Kd [2]: > 10 µM
Kd [3]: > 10 µM
IC50 [4]: 0.01 to 1 µM
IC50 [5]: > 10 µM

C[C@H](Oc1cc(-c2nn(C)c3c(-c4cccnc4)cnc(N)c23)ccc1NS(=O)(=O)C(F)F)c1ccc(F)cc1 [Compound 25, (S)-N-(4-(4-amino-1-methyl-7-(pyridin-3-yl)-1H-pyrazolo[4,3-c]pyridin-3-yl)-2-(1-(4-fluorophenyl)ethoxy)phenyl)-1,1-difluoromethanesulfonamide]
Kd [1]: < 0.001 µM
Kd [2]: > 10 µM
Kd [3]: > 10 µM
IC50 [4]: 0.01 to 1 µM
IC50 [5]: > 10 µM

Cc1ccc(-c2cnc(N)c3c(-c4ccc(NS(=O)(=O)C(F)F)c(O[C@@H](C)c5ccc(F)cc5)c4)nn(C)c23)cn1 [Compound 26, (S)-N-(4-(4-amino-1-methyl-7-(6-methylpyridin-3-yl)-1H-pyrazolo[4,3-c]pyridin-3-yl)-2-(1-(4-fluorophenyl)ethoxy)phenyl)-1,1-difluoromethanesulfonamide]
Kd [1]: < 0.001 µM
Kd [2]: > 10 µM
Kd [3]: > 10 µM
IC50 [4]: 0.01 to 1 µM
IC50 [5]: > 10 µM

COc1cc(-c2cnc(N)c3c(-c4ccc(NS(=O)(=O)C(F)F)c(O[C@@H](C)c5ccc(F)cc5)c4)nn(C)c23)ccn1 [Compound 27, (S)-N-(4-(4-amino-7-(2-methoxypyridin-4-yl)-1-methyl-1H-pyrazolo[4,3-c]pyridin-3-yl)-2-(1-(4-fluorophenyl)ethoxy)phenyl)-1,1-difluoromethanesulfonamide]
Kd [1]: 0.001 to 0.1 µM
Kd [2]: > 10 µM
Kd [3]: > 10 µM
IC50 [4]: 0.01 to 1 µM
IC50 [5]: > 10 µM

COc1ccc(-c2cnc(N)c3c(-c4ccc(NS(=O)(=O)C(F)F)c(O[C@@H](C)c5ccc(F)cc5)c4)nn(C)c23)cn1 [Compound 28, (S)-N-(4-(4-amino-7-(6-methoxypyridin-3-yl)-1-methyl-1H-pyrazolo[4,3-c]pyridin-3-yl)-2-(1-(4-fluorophenyl)ethoxy)phenyl)-1,1-difluoromethanesulfonamide]
Kd [1]: < 0.001 µM
Kd [2]: > 10 µM
Kd [3]: > 10 µM
IC50 [4]: 0.01 to 1 µM
IC50 [5]: > 10 µM

CC(C)n1cc(-c2cnc(N)c3c(-c4ccc(NS(=O)(=O)C(F)F)c(O[C@@H](C)c5ccc(F)cc5)c4)nn(C)c23)cn1 [Compound 31, (S)-N-(4-(4-amino-7-(1-isopropyl-1H-pyrazol-4-yl)-1-methyl-1H-pyrazolo[4,3-c]pyridin-3-yl)-2-(1-(4-fluorophenyl)ethoxy)phenyl)-1,1-difluoromethanesulfonamide]
Kd [1]: < 0.001 µM
Kd [2]: > 10 µM
Kd [3]: > 10 µM
IC50 [4]: < 0.01 µM
IC50 [5]: > 10 µM

C[C@H](Oc1cc(-c2cnn3c(-c4cnn(C)c4)cnc(N)c23)ccc1NS(=O)(=O)C(F)F)c1ccc(F)cc1 [Compound 35, (S)-N-(4-(4-amino-7-(1-methyl-1H-pyrazol-4-yl)pyrazolo[1,5-a]pyrazin-3-yl)-2-(1-(4-fluorophenyl)ethoxy)phenyl)-1,1-difluoromethanesulfonamide]
Kd [1]: < 0.001 µM
Kd [2]: > 10 µM
Kd [3]: > 10 µM
IC50 [4]: 0.01 to 1 µM
IC50 [5]: > 10 µM

C[C@H](Oc1cc(-c2cnn3c(-c4cnn(C5CCOCC5)c4)cnc(N)c23)ccc1NS(=O)(=O)C(F)F)c1ccc(F)cc1 [Compound 36, (S)-N-(4-(4-amino-7-(1-(tetrahydro-2H-pyran-4-yl)-1H-pyrazol-4-yl)pyrazolo[1,5-a]pyrazin-3-yl)-2-(1-(4-fluorophenyl)ethoxy)phenyl)-1,1-difluoromethanesulfonamide]
Kd [1]: < 0.001 µM
Kd [2]: > 10 µM
Kd [3]: > 10 µM
IC50 [4]: < 0.01 µM
IC50 [5]: > 10 µM
